Experiments:
Canis familiaris = test: Clearance in Beagle dog assessed as liver blood flow at 2 umol/kg, iv and 5 umol/kg, po; assay type: ADME, organism-based, Canis lupus familiaris; details: in vivo
[1] = Volume of distribution at steady state in Beagle dog at 2 umol/kg, iv and 5 umol/kg, po; assay type: ADME, organism-based, Canis lupus familiaris; details: in vivo, read-out: Vdss
[2] = Oral bioavailability in Beagle dog at 5 umol/kg, po; assay type: ADME, organism-based, Canis lupus familiaris; details: in vivo
physchem = details: octanol/water
[3] = Oral bioavailability in Han Wistar rat at 5 or 10 µmol/kg, po; details: in vivo
Rattus norvegicus = test: Clearance in Han Wistar rat assessed as liver blood flow at 1 or 2.5 µmol/kg, iv and 5 or 10 µmol/kg, po; details: in vivo
[4] = Volume of distribution at steady state in Han Wistar rat at 1 or 2.5 µmol/kg, iv and 5 or 10 µmol/kg, po; details: in vivo, read-out: Vdss
[5] = AUC in nude mouse at 100 umol/kg, po; assay type: ADME, organism-based; details: plasma
[6] = Cmax in nude mouse at 100 umol/kg, po; assay type: ADME, organism-based; parameters: dose 100 umol/kg, route oral; details: in vivo
[7] = AUC in nude mouse at 200 umol/kg, po; assay type: ADME, organism-based; details: plasma
[8] = Cmax in nude mouse at 200 umol/kg, po; assay type: ADME, organism-based; parameters: dose 200 umol/kg, route oral; details: in vivo
[9] = AUC in nude mouse at 10 umol/kg, po; assay type: ADME, organism-based; details: plasma
[10] = Cmax in nude mouse at 10 umol/kg, po; assay type: ADME, organism-based; parameters: dose 10 umol/kg, route oral; details: in vivo

`Cc1ccc(CO)cc1N(C)c1ccnc(Nc2cc(N3CCOCC3)nc(N3CCOCC3)c2)n1` gave an LBF (Canis familiaris) of 57%, a Vd [1] of 1.6 L/kg and a bioavailability [2] of 22%. The logD (physchem) was 3.4, the bioavailability [3] was 64% and the LBF (Rattus norvegicus) was 9%. The Vd [4] was 0.7 L/kg.

`COCCN(c1ccnc(Nc2cc(N3CCOCC3)cc(N3CCOCC3)c2)n1)c1cc(CO)ccc1C` gave a logD (physchem) of 2.8.

With `Cc1ccc(CO)cc1N(C)c1ccnc(Nc2cc(N3CCOCC3)cc(N3CCOCC3)c2)n1` the AUC [5] was 63 µM·h, the Cmax [6] was 15 µM and the AUC [7] was 155 µM·h. It also gave a Cmax [8] of 17 µM, an LBF (Canis familiaris) of 51% and a Vd [1] of 2.1 L/kg. It also gave a bioavailability [2] of 58%, an AUC [9] of 1.6 µM·h and a Cmax [10] of 1900 nM. For the same compound, the logD (physchem) was 3.1, the bioavailability [3] was 78% and the LBF (Rattus norvegicus) was 11%. For the same compound, the Vd [4] was 0.5 L/kg.

`COCCOc1cc(Nc2nccc(N(C)c3cc(CO)ccc3C)n2)cc(N2CCOCC2)c1` gave a logD (physchem) of 3.3.

In the case of `Cc1ccc(CO)cc1N(C)c1ccnc(Nc2cc(C(=O)N3CCOCC3)cc(N3CCOCC3)c2)n1`, the logD (physchem) is reported as 2.2.

For `Cc1ccc(CO)cc1N(C)c1ccnc(Nc2cc(N3CCOCC3)cc(N3CCN(O)CC3)c2)n1`, the logD (physchem) was 2.8.

With `Cc1ccc(CO)cc1N(C)c1ccnc(Nc2cc(CN3CCOCC3)cc(N3CCOCC3)c2)n1` the logD (physchem) was 3.

Compound `Cc1ccc(CO)cc1N(C)c1ccnc(Nc2cc(OC3CCOCC3)cc(N3CCOCC3)c2)n1` has a logD (physchem) of 3.7.

For `Cc1ccc(CO)cc1N(C)c1ccnc(Nc2cc(N3CCCC3)cc(N3CCOCC3)c2)n1`, the logD (physchem) was 3.8.

Compound `Cc1ccc(CO)cc1N(C)c1ccnc(Nc2cc(N3CCCOCC3)cc(N3CCOCC3)c2)n1` has a logD (physchem) of 3.3.

Work on `Cc1ccc(CO)cc1N(C)c1ccnc(Nc2cc(N3CCOCC3)nc(N3CCOCC3)n2)n1` yielded a logD (physchem) of 3.9.

`Cc1ccc(CO)cc1N(c1ccnc(Nc2cc(N3CCOCC3)cc(S(C)(=O)=O)c2)n1)C(C)C` showed a logD (physchem) of 3.4.

`CCN(c1ccnc(Nc2cc(N3CCOCC3)cc(N3CCOCC3)c2)n1)c1cc(CO)ccc1C` gave a logD (physchem) of 3.8.

`Cc1ccc(CO)cc1N(C)c1ccnc(Nc2cc(N3CCCCC3)cc(N3CCOCC3)c2)n1` showed a logD (physchem) of 4.2.

`COc1cc(Nc2nccc(N(C)c3cc(CO)ccc3C)n2)cc(N2CCOCC2)c1` gave a logD (physchem) of 3.9.

Compound `Cc1ccc(CO)cc1N(C)c1ccnc(Nc2cc(N3CCOCC3)cc(S(C)(=O)=O)c2)n1` has a bioavailability [3] of 17%, an LBF (Rattus norvegicus) of 16% and a Vd [4] of 0.4 L/kg.

From ChEMBL document CHEMBL1759854, “Inhibitors of the tyrosine kinase EphB4. Part 4: Discovery and optimization of a benzylic alcohol series” (Bioorg Med Chem Lett, 2011)
